This note sets out measurements from patent publication US20250282799A1, “SUBSTITUTED PYRIDO[4,3-d]PYRIMIDINES AS KRAS MODULATORS” (Alterome Therapeutics, Inc., priority 2023, published 2025).

The test relates to KRAS G12V dependent lung adenocarcinoma cell line, NCI-H441. Description: Cellular pERK (Thr202/Tyr204) FRET/HTRF assay. The format is cell-based. Particulars: Homo sapiens, NCI-H441, pERK HTRF, NCI-H441 cells (KRAS G12V). The gist of the method: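 IC50 reflects inhibition of ERK1/2 Thr202/Tyr204 phosphorylation, quantified by HTRF after a 1 hr treatment of KRAS G12V-driven NCI-H441 cells. DMSO served as negative control.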
For orientation: Time-resolved FRET reads energy transfer from a long-lived donor to a nearby acceptor.

By IC50 is commonly meant the concentration that inhibits the measured activity by half.

Some results are limits rather than exact numbers.

Regarding `[2H]C([2H])(Oc1nc(N2CCCO[C@@H]3C[C@@H]32)c2c(OC)nc(-c3cc(O)cc4ccc(F)c(C#C)c34)c(F)c2n1)[C@@]12CCCN1C[C@H](F)C2` [Example 35, 4-(4-((1R,7S)-2-Oxa-6-azabicyclo[5.1.0]octan-6-yl)-8-fluoro-2-(((2R,7aS)-2-fluorotetrahydro-1H-pyrrolizin-7a(5H)-yl)methoxy-d2)-5-methoxypyrido[4,3-d]pyrimidin-7-yl)-5-ethynyl-6-fluoronaphthalen-2-ol], the IC50 fell in the range of 50 to 500 nM.
As for `[2H]C([2H])(Oc1nc(N2CCCO[C@H]3C[C@H]32)c2c(OC)nc(-c3cc(O)cc4ccc(F)c(C#C)c34)c(F)c2n1)[C@@]12CCCN1C[C@H](F)C2` [Example 36, 4-(4-((1S,7R)-2-Oxa-6-azabicyclo[5.1.0]octan-6-yl)-8-fluoro-2-(((2R,7aS)-2-fluorotetrahydro-1H-pyrrolizin-7a(5H)-yl)methoxy-d2)-5-methoxypyrido[4,3-d]pyrimidin-7-yl)-5-ethynyl-6-fluoronaphthalen-2-ol], the IC50 was < 50 nM.
In turn, `[2H]C([2H])(Oc1nc(N2CCO[C@@H]3[C@@H](F)[C@@H]32)c2cnc(-c3cc(N)cc4cc(F)c(F)c(C#C)c34)c(F)c2n1)[C@@]12CCCN1C[C@H](F)C2` [Example 37, 5-Ethynyl-6,7-difluoro-4-(8-fluoro-4-((1S,6R,7S)-7-fluoro-2-oxa-5-azabicyclo[4.1.0]heptan-5-yl)-2-(((2R,7aS)-2-fluorotetrahydro-1H-pyrrolizin-7a(5H)-yl)methoxy-d2)pyrido[4,3-d]pyrimidin-7-yl)naphthalen-2-amine] gave an IC50 of 50 to 500 nM.
With `[2H]C([2H])(Oc1nc(N2CCO[C@H]3[C@H](F)[C@H]32)c2cnc(-c3cc(N)cc4cc(F)c(F)c(C#C)c34)c(F)c2n1)[C@@]12CCCN1C[C@H](F)C2` [Example 38, 5-Ethynyl-6,7-difluoro-4-(8-fluoro-4-((1R,6S,7R)-7-fluoro-2-oxa-5-azabicyclo[4.1.0]heptan-5-yl)-2-(((2R,7aS)-2-fluorotetrahydro-1H-pyrrolizin-7a(5H)-yl)methoxy-d2)pyrido[4,3-d]pyrimidin-7-yl)naphthalen-2-amine], the IC50 is < 50 nM.
With `[2H]C([2H])(Oc1nc(N2CCCO[C@H]3C[C@H]32)c2cnc(-c3ccc(F)c4sc(N)c(C#N)c34)c(F)c2n1)[C@@]12CCCN1C[C@H](F)C2` [Example 39, 4-(4-((1S,7R)-2-Oxa-6-azabicyclo[5.1.0]octan-6-yl)-8-fluoro-2-(((2R,7aS)-2-fluorotetrahydro-1H-pyrrolizin-7a(5H)-yl)methoxy-d2)pyrido[4,3-d]pyrimidin-7-yl)-2-amino-7-fluorobenzo[b]thiophene-3-carbonitrile] the figure was 50 to 500 nM; with `[2H]C([2H])(Oc1nc(N2CCCO[C@@H]3C[C@@H]32)c2cnc(-c3ccc(F)c4sc(N)c(C#N)c34)c(F)c2n1)[C@@]12CCCN1C[C@H](F)C2` [Example 40, 4-(4-((1R,7S)-2-Oxa-6-azabicyclo[5.1.0]octan-6-yl)-8-fluoro-2-(((2R,7aS)-2-fluorotetrahydro-1H-pyrrolizin-7a(5H)-yl)methoxy-d2)pyrido[4,3-d]pyrimidin-7-yl)-2-amino-7-fluorobenzo[b]thiophene-3-carbonitrile], 500 to 10000 nM.
In the case of `[2H]C([2H])([2H])Oc1c(F)c(F)c(F)c2cc(N)cc(-c3ncc4c(N5CCOC[C@H]6[C@H](F)[C@H]65)nc(OC([2H])([2H])[C@@]56CCCN5C[C@H](F)C6)nc4c3F)c12` [Example 41, 6,7,8-Trifluoro-4-(8-fluoro-4-((1S,7S,8S)-8-fluoro-5-oxa-2-azabicyclo[5.1.0]octan-2-yl)-2-(((2R,7aS)-2-fluorotetrahydro-1H-pyrrolizin-7a(5H)-yl)methoxy-d2)pyrido[4,3-d]pyrimidin-7-yl)-5-(methoxy-d3)naphthalen-2-amine], the IC50 is < 50 nM.
With `[2H]C([2H])(Oc1nc(N2CCOC[C@H]3[C@H](F)[C@H]32)c2cnc(-c3cccc4cc(F)c(F)c(C#C)c34)c(F)c2n1)[C@@]12CCCN1C[C@H](F)C2` [Example 42, (1S,7S,8S)-2-(7-(8-Ethynyl-6,7-difluoronaphthalen-1-yl)-8-fluoro-2-(((2R,7aS)-2-fluorotetrahydro-1H-pyrrolizin-7a(5H)-yl)methoxy-d2)pyrido[4,3-d]pyrimidin-4-yl)-8-fluoro-5-oxa-2-azabicyclo[5.1.0]octane] the figure was < 50 nM; with `[2H]C([2H])([2H])Oc1c(F)ccc2cccc(-c3ncc4c(N5CCOC[C@H]6[C@H](F)[C@H]65)nc(OC([2H])([2H])[C@@]56CCCN5C[C@H](F)C6)nc4c3F)c12` [Example 43, (1S,7S,8S)-8-Fluoro-2-(8-fluoro-7-(7-fluoro-8-(methoxy-d3)naphthalen-1-yl)-2-(((2R,7aS)-2-fluorotetrahydro-1H-pyrrolizin-7a(5H)-yl)methoxy-d2)pyrido[4,3-d]pyrimidin-4-yl)-5-oxa-2-azabicyclo[5.1.0]octane], < 50 nM.
As to `[2H]C([2H])([2H])Oc1c(F)c(F)cc2cc(N)cc(-c3ncc4c(N5CCOC[C@H]6[C@H](F)[C@H]65)nc(OC([2H])([2H])[C@@]56CCCN5C[C@H](F)C6)nc4c3F)c12` [Example 44, 6,7-Difluoro-4-(8-fluoro-4-((1S,7S,8S)-8-fluoro-5-oxa-2-azabicyclo[5.1.0]octan-2-yl)-2-(((2R,7aS)-2-fluorotetrahydro-1H-pyrrolizin-7a(5H)-yl)methoxy-d2)pyrido[4,3-d]pyrimidin-7-yl)-5-(methoxy-d3)naphthalen-2-amine], the IC50 was < 50 nM.
As to `[2H]C([2H])(Oc1nc(N2CCOC[C@H]3[C@H](F)[C@H]32)c2cnc(-c3cccc4ccc(F)c(C#C)c34)c(F)c2n1)[C@@]12CCCN1C[C@H](F)C2` [Example 45, (1S,7S,8S)-2-(7-(8-Ethynyl-7-fluoronaphthalen-1-yl)-8-fluoro-2-(((2R,7aS)-2-fluorotetrahydro-1H-pyrrolizin-7a(5H)-yl)methoxy-d2)pyrido[4,3-d]pyrimidin-4-yl)-8-fluoro-5-oxa-2-azabicyclo[5.1.0]octane], the IC50 was < 50 nM.
As for `[2H]C([2H])(Oc1nc(N2CCOC[C@@H]3[C@@H](F)[C@@H]32)c2cnc(-c3cccc4ccc(F)c(C#C)c34)c(F)c2n1)[C@@]12CCCN1C[C@H](F)C2` [Example 46, (1R,7R,8R)-2-(7-(8-ethynyl-7-fluoronaphthalen-1-yl)-8-fluoro-2-(((2R,7aS)-2-fluorotetrahydro-1H-pyrrolizin-7a(5H)-yl)methoxy-d2)pyrido[4,3-d]pyrimidin-4-yl)-8-fluoro-5-oxa-2-azabicyclo[5.1.0]octane], the IC50 is 500 to 10000 nM.
Molecule `[2H]C([2H])(Oc1nc(N2CCOC[C@@H]3C[C@@H]32)c2cnc(-c3ccc(F)c4sc(N)c(C#N)c34)c(F)c2n1)[C@@]12CCCN1C[C@H](F)C2` [Example 47, 4-(4-((1S,7R)-5-Oxa-2-azabicyclo[5.1.0]octan-2-yl)-8-fluoro-2-(((2R,7aS)-2-fluorotetrahydro-1H-pyrrolizin-7a(5H)-yl)methoxy-d2)pyrido[4,3-d]pyrimidin-7-yl)-2-amino-7-fluorobenzo[b]thiophene-3-carbonitrile] came in with an IC50 of 500 to 10000 nM.
The molecule `[2H]C([2H])(Oc1nc(N2CCOC[C@H]3C[C@H]32)c2cnc(-c3ccc(F)c4sc(N)c(C#N)c34)c(F)c2n1)[C@@]12CCCN1C[C@H](F)C2` [Example 48, 4-(4-((1R,7S)-5-Oxa-2-azabicyclo[5.1.0]octan-2-yl)-8-fluoro-2-(((2R,7aS)-2-fluorotetrahydro-1H-pyrrolizin-7a(5H)-yl)methoxy-d2)pyrido[4,3-d]pyrimidin-7-yl)-2-amino-7-fluorobenzo[b]thiophene-3-carbonitrile] yielded an IC50 of 50 to 500 nM.
With `[2H]C([2H])([2H])Oc1c(C#N)ccc2cc(N)cc(-c3ncc4c(N5CCCC[C@H]6[C@H](F)[C@H]65)nc(OC([2H])([2H])[C@@]56CCCN5C[C@H](F)C6)nc4c3F)c12` [Example 49, 6-Amino-8-(8-fluoro-4-((1S,7R,8S)-8-fluoro-2-azabicyclo[5.1.0]octan-2-yl)-2-(((2R,7aS)-2-fluorotetrahydro-1H-pyrrolizin-7a(5H)-yl)methoxy-d2)pyrido[4,3-d]pyrimidin-7-yl)-1-(methoxy-d3)-2-naphthonitrile] the figure was < 50 nM.
With `[2H]C([2H])([2H])Oc1c(C#N)c(F)cc2cc(N)cc(-c3ncc4c(N5CCCC[C@H]6[C@H](F)[C@H]65)nc(OC([2H])([2H])[C@@]56CCCN5C[C@H](F)C6)nc4c3F)c12` [Example 50, 6-Amino-3-fluoro-8-(8-fluoro-4-((1S,7R,8S)-8-fluoro-2-azabicyclo[5.1.0]octan-2-yl)-2-(((2R,7aS)-2-fluorotetrahydro-1H-pyrrolizin-7a(5H)-yl)methoxy-d2)pyrido[4,3-d]pyrimidin-7-yl)-1-(methoxy-d3)-2-naphthonitrile] the figure was < 50 nM.
With `[2H]C([2H])(Oc1nc(N2CCC[C@@H]3C[C@@H]32)c2cnc(-c3cc(N)cc4cc(F)c(F)c(C#C)c34)c(F)c2n1)[C@@]12CCCN1C[C@H](F)C2` [Example 51, 4-(4-((1S,6R)-2-Azabicyclo[4.1.0]heptan-2-yl)-8-fluoro-2-(((2R,7aS)-2-fluorotetrahydro-1H-pyrrolizin-7a(5H)-yl)methoxy-d2)pyrido[4,3-d]pyrimidin-7-yl)-5-ethynyl-6,7-difluoronaphthalen-2-amine] the figure was 500 to 10000 nM; with `[2H]C([2H])(Oc1nc(N2CCC[C@H]3C[C@H]32)c2cnc(-c3cc(N)cc4cc(F)c(F)c(C#C)c34)c(F)c2n1)[C@@]12CCCN1C[C@H](F)C2` [Example 52, 4-(4-((1R,6S)-2-azabicyclo[4.1.0]heptan-2-yl)-8-fluoro-2-(((2R,7aS)-2-fluorotetrahydro-1H-pyrrolizin-7a(5H)-yl)methoxy-d2)pyrido[4,3-d]pyrimidin-7-yl)-5-ethynyl-6,7-difluoronaphthalen-2-amine], 50 to 500 nM.
